Laboratory results as given in patent publication US20240174603A1 (Rappta Therapeutics Oy, priority 2021, published 2024).

system: LNCaP cells; assay: LNCaP cell viability assay (MTS); type: cell-based; settings: Homo sapiens, LNCaP cell line, 48 hours
Procedure, shortened: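 LNCaP cells (5000/well) treated 24 h after plating with compound at 1–80 µM for 48 h. Relative cell number read by MTS; GI50 from four-parameter variable-slope log(inhibitor) fit with bottom constrained to zero.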

SMILES | GI50 [µM]
CN(C)CC(NS(=O)(=O)c1ccc(OC(F)(F)F)nc1)c1ccc(Cl)c(Cl)c1 (centres unmarked) [Compound 157, N-(1-(3,4-dichlorophenyl)-2-(dimethylamino)ethyl)-6-(trifluoromethoxy)pyridine-3-sulfonamide] | 17.7
CN(C)CC(NS(=O)(=O)c1ccc(OC(F)(F)F)cc1)c1ccc(C(F)(F)F)cc1 (centres unmarked) [Compound 219, N-(2-(dimethylamino)-1-(4-(trifluoromethyl)phenyl)ethyl)-4-(trifluoromethoxy)benzenesulfonamide] | 43.6

same assay, conditions: Homo sapiens, LNCaP, 48 h, LNCaP cell line

SMILES | GI50 [µM]
CC(C)(C)OC(=O)N1CC(CNS(=O)(=O)c2ccc(OC(F)(F)F)cc2)OC(C)(C)C1 (centres unmarked) [Compound 77, Tert-butyl 2,2-dimethyl-6-(((4-(trifluoromethoxy)phenyl)sulfonamido)methyl)morpholine-4-carboxylate] | 20
O=S(=O)(NC(CC1CC1)c1cc(F)cc(Br)c1)c1ccc(OC(F)(F)F)cc1 (centres unmarked) [Compound 72, N-(1-(3-bromo-5-fluorophenyl)-2-cyclopropylethyl)-4-(trifluoromethoxy)benzenesulfonamide] | 17
CN(C)CC(NS(=O)(=O)c1ccc(Oc2ccccc2)cc1)c1ccc(Cl)c(Cl)c1 (centres unmarked) [Compound 138, N-(1-(3,4-dichlorophenyl)-2-(dimethylamino)ethyl)-4-phenoxybenzenesulfonamide] | 10.5
Cc1ccc(C(CN(C)C)NS(=O)(=O)c2ccc(OC(F)(F)F)cc2)cc1 (centres unmarked) [Compound 123, N-(2-(dimethylamino)-1-(p-tolyl)ethyl)-4-(trifluoromethoxy)benzenesulfonamide] | 45.2
CN(C)CC(NS(=O)(=O)c1ccc(C(=O)NC2CCCCC2)cc1)c1ccc(Cl)c(Cl)c1 (centres unmarked) [Compound 187, N-cyclohexyl-4-(N-(1-(3,4-dichlorophenyl)-2-(dimethylamino)ethyl)sulfamoyl)benzamide] | 53.6
CN(C)CC(NS(=O)(=O)c1ccc(Cl)cc1F)c1ccc(Cl)c(Cl)c1 (centres unmarked) [Compound 160, 4-chloro-N-(1-(3,4-dichlorophenyl)-2-(dimethylamino)ethyl)-2-fluorobenzenesulfonamide] | 58.5
CCCCN(CCCNS(=O)(=O)c1ccc(OC(F)(F)F)cc1)Cc1ccccc1 [Compound 64, N-(3-(benzyl(butyl)amino)propyl)-4-(trifluoromethoxy)benzenesulfonamide] | 36
CCCC(NS(=O)(=O)c1ccc(OC(F)(F)F)cc1)C(=O)N(C)C1CCCCCC1 (centres unmarked) [Compound 4, N-cycloheptyl-N-methyl-2-((4-(trifluoromethoxy)phenyl)sulfonamido)pentanamide] | 54
O=S(=O)(NCCC(O)(C(F)(F)F)C(F)(F)F)c1ccc(OC(F)(F)F)cc1 [Compound 50, N-(4,4,4-trifluoro-3-hydroxy-3-(trifluoromethyl)butyl)-4-(trifluoromethoxy)benzenesulfonamide] | 71
CC1CCCCC1OCCNS(=O)(=O)c1ccc(OC(F)(F)F)cc1 (centres unmarked) [Compound 95, N-(2-((2-methylcyclohexyl)oxy)ethyl)-4-(trifluoromethoxy)benzenesulfonamide] | 15
CN1CCN(CC(NS(=O)(=O)c2ccc(OC(F)(F)F)cc2)c2ccc(Cl)c(Cl)c2)CC1 (centres unmarked) [Compound 185, N-(1-(3,4-dichlorophenyl)-2-(4-methylpiperazin-1-yl)ethyl)-4-(trifluoromethoxy)benzenesulfonamide] | 12.6
O=S(=O)(NC(CC(F)(F)F)c1ccccc1)c1ccc(OC(F)(F)F)cc1 (centres unmarked) [Compound 8, N-(3,3,3-trifluoro-1-phenylpropyl)-4-(trifluoromethoxy)benzenesulfonamide] | 38.1
COc1ccc(C)cc1CC(NS(=O)(=O)c1ccc(OC(F)(F)F)cc1)C(C)C (centres unmarked) [Compound 18, N-(1-(2-methoxy-5-methylphenyl)-3-methylbutan-2-yl)-4-(trifluoromethoxy)benzenesulfonamide] | 76.7
CN(C)CC1(CNS(=O)(=O)c2ccc(OC(F)(F)F)cc2)CC1 [Compound 98, N-((1-((dimethylamino)methyl)cyclopropyl)methyl)-4-(trifluoromethoxy)benzenesulfonamide] | 29
O=S(=O)(NCC1(c2c(Cl)cccc2Cl)CCC1)c1ccc(OC(F)(F)F)cc1 [Compound 56, N-((1-(2,6-dichlorophenyl)cyclobutyl)methyl)-4-(trifluoromethoxy)benzenesulfonamide] | 30
Cc1ccc(C2(CNS(=O)(=O)c3ccc(OC(F)(F)F)cc3)CC2)c(C)c1 [Compound 60, N-((1-(2,4-dimethylphenyl)cyclopropyl)methyl)-4-(trifluoromethoxy)benzenesulfonamide] | 44
CCOC(=O)C(NS(=O)(=O)c1ccc(OC(F)(F)F)cc1)c1ccc(OC)c(Br)c1 (centres unmarked) [Compound 16, Ethyl 2-(3-bromo-4-methoxyphenyl)-2-((4-(trifluoromethoxy)phenyl)sulfonamido)acetate] | 49.7
CN(C)CC(NS(=O)(=O)c1ccc(Oc2ccc(C(F)(F)F)cc2)cc1)c1ccc(Cl)c(Cl)c1 (centres unmarked) [Compound 139, N-(1-(3,4-dichlorophenyl)-2-(dimethylamino)ethyl)-4-(4-(trifluoromethyl)phenoxy)benzenesulfonamide] | 10.2
O=S(=O)(NCC1(c2ccc(Br)cc2Cl)CC1)c1ccc(OC(F)(F)F)cc1 [Compound 80, N-((1-(4-bromo-2-chlorophenyl)cyclopropyl)methyl)-4-(trifluoromethoxy)benzenesulfonamide] | 23
CN(C)CC(NS(=O)(=O)c1ccc(OC(F)F)cc1)c1ccc(Cl)c(Cl)c1 (centres unmarked) [Compound 153, N-(1-(3,4-dichlorophenyl)-2-(dimethylamino)ethyl)-4-(difluoromethoxy)benzenesulfonamide] | 45.7
CN(C)CC(NS(=O)(=O)c1ccc(Oc2ccccc2)cc1)c1ccc(Cl)c(Cl)c1 (single isomer, unassigned) [Compound 170, N-(1-(3,4-dichlorophenyl)-2-(dimethylamino)ethyl)-4-phenoxybenzenesulfonamide] | 13.3
CN(C)CC(NS(=O)(=O)c1ccc(OC(F)(F)F)cc1)c1cccc(Cl)c1 (centres unmarked) [Compound 166, N-(1-(3-chlorophenyl)-2-(dimethylamino)ethyl)-4-(trifluoromethoxy)benzenesulfonamide] | 44.5

Second part, the molecule after the results:

GI50 [µM] | SMILES
14.4 | CN(C)CC(NS(=O)(=O)c1ccc(OC(F)(F)F)c(Cl)c1)c1ccc(Cl)cc1 (centres unmarked) [Compound 192, 3-chloro-N-(1-(4-chlorophenyl)-2-(dimethylamino)ethyl)-4-(trifluoromethoxy)benzenesulfonamide]
19.3 | CN(C)CC(NS(=O)(=O)c1cccc(-c2ccccc2)c1)c1ccc(Cl)c(Cl)c1 (single isomer, unassigned) [Compound 197, N-(1-(3,4-dichlorophenyl)-2-(dimethylamino)ethyl)-[1,1′-biphenyl]-3-sulfonamide]
6.84 | O=S(=O)(NC(CN1CCNCC1)c1ccc(Cl)c(Cl)c1)c1ccc(OC(F)(F)F)cc1 (centres unmarked) [Compound 237, N-(1-(3,4-dichlorophenyl)-2-(piperazin-1-yl)ethyl)-4-(trifluoromethoxy)benzenesulfonamide]
45.2 | CC(C)(NS(=O)(=O)c1ccc(OC(F)(F)F)cc1)C1(c2ccc(Cl)c(Cl)c2)CC1 [Compound 245, N-(2-(1-(3,4-dichlorophenyl)cyclopropyl)propan-2-yl)-4-(trifluoromethoxy)benzenesulfonamide]
56.1 | O=S(=O)(NCC1(c2ccc(Cl)cc2)CCCC1)c1ccc(OC(F)(F)F)cc1 [Compound 244, N-((1-(4-chlorophenyl)cyclopentyl)methyl)-4-(trifluoromethoxy)benzenesulfonamide]
49.5 | CN(C)CC(NS(=O)(=O)c1ccc(Cl)c(F)c1)c1ccc(Cl)c(Cl)c1 (centres unmarked) [Compound 217, 4-chloro-N-(1-(3,4-dichlorophenyl)-2-(dimethylamino)ethyl)-3-fluorobenzenesulfonamide]
11.3 | CCCCc1ccc(S(=O)(=O)NC(CN(C)C)c2ccc(Cl)c(Cl)c2)cc1 (centres unmarked) [Compound 214, 4-butyl-N-(1-(3,4-dichlorophenyl)-2-(dimethylamino)ethyl)benzenesulfonamide]
23.8 | CN(C)C[C@@H](Cc1ccc(Cl)c(Cl)c1)NS(=O)(=O)c1ccc(OC(F)(F)F)cc1 [Compound 246, (R)—N-(1-(3,4-dichlorophenyl)-3-(dimethylamino)propan-2-yl)-4-(trifluoromethoxy)benzenesulfonamide]
24.1 | CNCC(NS(=O)(=O)c1ccc(OC(F)(F)F)cc1)c1ccc(Cl)c(Cl)c1 (centres unmarked) [Compound 242, N-(1-(3,4-dichlorophenyl)-2-(methylamino)ethyl)-4-(trifluoromethoxy)benzenesulfonamide]
12.5 | CN(C)CC(NS(=O)(=O)c1ccc(OC2CCCC2)cc1)c1ccc(Cl)c(Cl)c1 (centres unmarked) [Compound 210, 4-(cyclopentyloxy)-N-(1-(3,4-dichlorophenyl)-2-(dimethylamino)ethyl)benzenesulfonamide]

same assay, conditions: LNCaP cell line, 48 hours

SMILES | GI50 [µM]
CN(C)CC(NS(=O)(=O)c1ccc(OC(F)(F)F)cc1)c1ccc(Cl)c(Cl)c1 (single isomer, unassigned) [Compound 149, N-(1-(3,4-dichlorophenyl)-2-(dimethylamino)ethyl)-4-(trifluoromethoxy)benzenesulfonamide] | 23.9
CN(C)CC(NS(=O)(=O)c1ccc(OC(F)(F)F)cc1)c1ccc(Cl)cc1 (single isomer, unassigned) [Compound 180, N-(1-(4-chlorophenyl)-2-(dimethylamino)ethyl)-4-(trifluoromethoxy)benzenesulfonamide] | 51.3

Next, values leading:

GI50 [µM] | SMILES
15.9 | CN(C)CC(NS(=O)(=O)c1ccc(-c2ccccc2)cc1)c1ccc(Cl)c(Cl)c1 (single isomer, unassigned) [Compound 196, N-(1-(3,4-dichlorophenyl)-2-(dimethylamino)ethyl)-[1,1′-biphenyl]-4-sulfonamide]
9.79 | O=S(=O)(NC(CN1CC2CC1CN2)c1ccc(Cl)c(Cl)c1)c1ccc(OC(F)(F)F)cc1 (single isomer, unassigned) [Compound 261b, N-(2-(2,5-diazabicyclo[2.2.1]heptan-2-yl)-1-(3,4-dichlorophenyl)ethyl)-4-(trifluoromethoxy)benzenesulfonamide]
